For series [1], the system named is HCV replicon. Description: Anti-HCV assay / replicon assay (EC50, luciferase read-out). The class given is cell-based, hepatitis C virus (HCV). The note with it: for CC50/EC50: CC50/EC50 ratio (selectivity index). As for the experimental part:
(§1) The anti-HCV activity of the pyrido[3,2-d]pyrimidine derivatives of this invention was tested in a human hepatoma Huh-7 cell line harbouring a HCV replicon. The assay comprised the following steps:
(§2) Step 1: Compound Preparation and Serial Dilution
(§3) • 1. for water soluble pyrido[3,2-d]pyrimidine derivatives, a volume of 500 μL of solution in cell media (DMEM, 10% FBS, P/S, L-Glutamine) was prepared with a concentration being twice the concentration of the starting final serial dilution concentration. […] The rest of the plate, columns 2-12, was filled with 100 μL of cell media. The plate was then placed on a Precision 2000 Workstation to start the serial dilution. Compounds were diluted three times each step from column 1 to column 10. Column 11 was used as a blank control (no compound added). • 2. for pyrido[3,2-d]pyrimidine derivatives requiring DMSO to dissolve, serial dilution is performed in 50% DMSO in a 384-well plate. A solution containing a compound at 100-fold concentration of the starting final serial dilution concentration was prepared in 50% DMSO and added to the pre-specified wells in column 1 of a polypropylene 384-well plate. The plate was then placed on a Precision 2000 Workstation to start the serial dilution. After the serial dilution, a volume of 2 μL of the solution was transferred from the 384-well plate to a 96-well cell culture plate containing 100 μL of cell media on a Biomek FX Workstation. The DMSO concentration in the final assay condition was 0.5% after cells are added to the plate and the total volume in each well is brought to 200 μL. Step 2: to each well of the serial dilution plate prepared above, 100 μL of cell media containing 6000 suspended Huh-7 HCV replicon cells was added with a Multidrop workstation. The plates were incubated for 3 days at 37° C. with 5% CO2. Step 3: Detection: • a) for the EC50 assay, the media in a 96-well cell culture plate was aspirated with a Biotek EL405 plate-washer. A volume of 200 μL of a solution containing a 1:1 mixture of cell-lysis buffer (Promega, Luciferase Cell Culture Lysis 5× Reagent, cat. #E1531) and luciferase substrate solution (Promega, Luciferase Assay, cat. #E4550) was added to each well of the plate with Multidrop.
(§4) Results in table 7 are expressed by the following data: • the 50% effective concentration (EC50), i.e. the concentration that protects 50% of the cell monolayer from virus-induced cythopathic effect, and • the 50% cytostatic concentration (CC50), i.e. the concentration that results in 50% inhibition of cell growth. Table 7 further indicates the nature of substituents being present in positions 2, 4 and 6 of the pyrido[3,2-d]pyrimidine derivatives of the invention.

Series [2] deals with Huh-7 HCV replicon cells. Nature of the series: CC50 assay in Huh-7 HCV replicon cells (CellTiter-Glo). The class given is cell-based, human. To be noted: 3 days, 50% cytostatic concentration. As to the method: as §1, §2, §3, §4
The mark [3] stands for this setting: human hepatoma Huh-7 cell line harbouring a HCV replicon, 3 days, luciferase luminescence, read-out: EC50.
The mark [4] stands for this setting: Hepatitis C virus, 72 h, human hepatoma Huh-7 cell line harbouring a HCV replicon, 3 days, luciferase luminescence, read-out: EC50.

Several values for one entry are separate records, joined by “and”; a condition that tells them apart may be missing. Equal entries are not always repeated. Where two headings read alike, the source gives them in different places.

The values below come from patent US8232278B2 (Gilead Sciences, Inc., priority 2005, dated 2012).

In the case of `Nc1nc(N2CCN(C(=O)COc3ccc(Cl)cc3)CC2)c2nc(-c3ccc4c(c3)OCCO4)ccc2n1` [Example 189, 2-amino-4-[N-(4-chlorophenoxy-acetyl)-piperazin-1-yl]-6-(1,4-benzodioxane)-pyrido[3,2-d]pyrimidine], in series [1], the CC50/EC50 is 50. In series [1] (setting [3]), the concentration giving a half-maximal response (EC50) was determined as 0.009 µM. Moreover, the CC50 in series [2] turned out to be 0.43 µM.

Turning to `CCOc1nc(N)nc2ccc(-c3ccc(F)c(Cl)c3)nc12` [Example 462, 6-(3-chloro-4-fluoro-phenyl)-4-ethoxy-pyrido[3,2-d]pyrimidin-2-ylamine], the CC50/EC50 in series [1] is 117. The half-maximal effective concentration (EC50) in series [1] (Hepatitis C virus, Huh-7, 72 h) came out at 0.428 µM. Besides, the half-maximal cytotoxic concentration (CC50) in series [2] came out at 50.1 µM.

With `Nc1nc(N2CCN(C(=O)COc3ccc(Cl)cc3)CC2)c2nc(-c3ccc(Cl)cc3)ccc2n1` [Example 384, 2-amino-4-[N-(4-chlorophenoxyacetyl)piperazin-1-yl]-6-(4-chlorophenyl)pyrido-[3,2-d]pyrimidine], the CC50/EC50 in series [1] was 231 and 148. In series [1] (setting [3]), the concentration for a half-maximal effect (EC50) is 0.053 µM. In series [2], the 50% cytotoxic concentration (CC50) is 12.2 µM and 7.9 µM.

Regarding `Cc1cccc(NC(=O)N2CCN(c3nc(N)nc4ccc(-c5ccc6c(c5)OCCO6)nc34)CC2)c1` [Example 192, 2-amino-4-[N-(3-methyl-phenyl-carbamoyl)-piperazin-1-yl]-6-(1,4-benzodioxane)-pyrido[3,2-d]pyrimidine], in series [1], the CC50/EC50 is recorded as 147. The EC50 in series [1] (setting [3]) was 0.005 µM. Also, it took 0.69 µM to reach half-maximal cytotoxicity in series [2] (CC50).

In the case of `COc1ccc(-c2ccc3nc(OCCOc4ccccc4)nc(N4CCN(C(=O)Nc5cccc(C)c5)CC4)c3n2)cc1OC` [Example 19], the CC50/EC50 in series [1] was 52. In series [1] (setting [3]), the 50% effective concentration (EC50) came out at 0.48 µM. This compound came in with a CC50 in series [2] of 25.1 µM.

Turning to `COc1ccc(-c2ccc3nc(N)nc(Nc4ccc5c(c4)OCO5)c3n2)cc1OC` [Example 33, 2-amino-4-[3,4-(methylenedioxy)aniline]-6-(3,4-dimethoxyphenyl)pyrido[3,2-d]pyrimidine], the CC50/EC50 in series [1] was determined as 636. Also, in series [1] (setting [3]), the EC50 worked out at 0.008 µM. The same compound came in with a CC50 in series [2] of 4.8 µM.

Consider `CSc1nc(N)nc2ccc(-c3ccc(F)cc3)nc12` [Example 392, 2-amino-4-thiomethyl-6-(4-fluorophenyl)-pyrido(3,2-d)pyrimidine], for which the CC50/EC50 in series [1] is given as 512. In series [1] (setting [3]), the EC50 was determined as 0.049 µM. This compound also returned a CC50 in series [2] of 25.1 µM.

As for `Cc1cccc(NC(=O)N2CCN(c3nc(N)nc4ccc(-c5ccccc5)nc34)CC2)c1` [Example 389, 2-amino-4-[N-(3-methyl-phenyl-carbamoyl)-piperazin-1-yl]-6-phenyl-pyrido[3,2-d]pyrimidine], the CC50/EC50 in series [1] is 200. In addition, the EC50 in series [1] (setting [3]) came to 0.021 µM. For the same compound, it took 4.2 µM to reach half-maximal cytotoxicity in series [2] (CC50).

In the case of `Nc1nc(N2CCN(C(=O)COc3ccc(Cl)cc3)CC2)c2nc(-c3ccoc3)ccc2n1` [Example 381, 2-amino-4-[N-(4-chlorophenoxyacetyl)piperazin-1-yl]-6-(furan-3-yl)pyrido-[3,2-d]pyrimidine], in series [1], the CC50/EC50 is reported as 149. For the same compound, the 50% effective concentration (EC50) in series [1] (setting [3]) was 0.061 µM. Further, the CC50 in series [2] stood at 9.1 µM.

Regarding `COc1cc(-c2ccc3nc(N)nc(N4CCN(C(=O)Nc5ccc(F)cc5)CC4)c3n2)ccc1OC(C)C` [Example 106, 2-amino-4-[(N-4-fluoro-phenyl-carbamoyl)-piperazin-1-yl]-6-(4-isopropoxy-3-methoxy-phenyl)-pyrido[3,2-d]pyrimidine], the CC50/EC50 in series [1] was 102. Further, the 50% effective concentration (EC50) in series [1] (setting [3]) stood at 0.035 µM. Moreover, it took 3.6 µM to reach half-maximal cytotoxicity in series [2] (CC50).

`CS(=O)(=O)CCNc1nc(N)nc2ccc(-c3ccc(F)cc3)nc12` [Example 415, 2-amino-4-[(2-aminoethyl)methylsulfone]-6-(4-fluorophenyl)pyrido[3,2-d]pyrimidine]: the CC50/EC50 in series [1] came to 118. The EC50 in series [1] (setting [3]) was 0.099 µM. The compound further yielded a 50% cytotoxic concentration (CC50) in series [2] of 11.7 µM.

As to `CCCOc1nc(N)nc2ccc(-c3ccccc3F)nc12` [Example 282, 2-amino-4-n-propoxy-6-(o-fluorophenyl)-pyrido[3,2-d]pyrimidine], in series [1], the CC50/EC50 is 89. Moreover, the EC50 in series [1] (setting [4]) worked out at 0.56 µM. Further, in series [2], the CC50 amounted to 50.1 µM.

`COc1ccc(-c2ccc3nc(Cl)nc(N4CCN(C(=O)Nc5cccc(C)c5)CC4)c3n2)cc1OC` [Example 14]: in series [1], the CC50/EC50 is listed as 167. For the same compound, the EC50 in series [1] (setting [3]) came to 0.15 µM. Further, it took 25.1 µM to reach half-maximal cytotoxicity in series [2] (CC50).

Turning to `COc1ccc(-c2ccc3nc(N)nc(N4CCN(c5ccccn5)CC4)c3n2)cc1OC` [Example 52, 2-amino-4-(2-pyridyl-piperazin-1-yl)-6-(3,4-dimethoxyphenyl)-pyrido[3,2-d]pyrimidine], in series [1], the CC50/EC50 was 72. Moreover, in series [1] (setting [3]), the EC50 is 0.042 µM. Also, half-maximal cytotoxicity in series [2] (CC50) was put at 3 µM.

Regarding “4-ethoxy-6-(3-fluoro-4-methoxy-phenyl)-pyrido[3,2-d]pyrimidin-2-ylamine [Example 459]”, the CC50/EC50 in series [1] was found to be 78. In addition, in series [1] (setting [3]), the EC50 worked out at 0.32 µM. Besides, in series [2], the CC50 is 25.1 µM.

For the compound `Nc1nc(N2CCS(=O)(=O)CC2)c2nc(-c3ccc(F)cc3)ccc2n1` [Example 406, 2-amino-4-(thiomorpholino-1,1-dioxide)-6-(4-fluorophenyl)pyrido[3,2-d]pyrimidine], the CC50/EC50 in series [1] was found to be 1931. Besides, in series [1] (setting [3]), the EC50 amounted to 0.013 µM. Further, it took 25.1 µM to reach half-maximal cytotoxicity in series [2] (CC50).

On to `COc1ccc(-c2ccc3nc(N)nc(N4CCN(C(=O)Nc5cccc(Cl)c5)CC4)c3n2)cc1OC` [Example 63, 2-amino-4(N-3-chloro-phenyl-carbamoyl-piperazin-1-yl)-6-(3,4-dimethoxyphenyl)-pyrido[3,2-d]pyrimidine], for which, in series [1], the CC50/EC50 amounted to 106. In addition, the EC50 in series [1] (setting [3]) is 0.007 µM. In series [2], this compound registered a CC50 of 0.7 µM.

Consider `Cc1cccc(NC(=O)N2CCN(c3nc(N)nc4ccc(-c5ccc(Cl)c(Cl)c5)nc34)CC2)c1` [Example 191, 2-amino-4-[N-(3-methyl-phenyl-carbamoyl)-piperazin-1-yl]-6-(3,4-dichlorophenyl)-pyrido[3,2-d]pyrimidine], for which the CC50/EC50 in series [1] was found to be 132. Besides, the EC50 in series [1] (setting [3]) was determined as 0.009 µM. Moreover, it took 1.2 µM to reach half-maximal cytotoxicity in series [2] (CC50).

With `COc1ccc(-c2ccc3nc(N)nc(Nc4cccc(C)c4)c3n2)cc1OC` [Example 32, 2-amino-4-(3-methyl-anilino)-6-(3,4-dimethoxyphenyl)-pyrido[3,2-d]pyrimidine], the CC50/EC50 in series [1] turned out to be 195. In addition, in series [1] (setting [4]), the 50% effective concentration (EC50) stood at 0.258 µM. For the same compound, the midpoint of cytotoxicity in series [2], the CC50, lay at 50.1 µM.

In the case of `Nc1nc(N2CCN(C(=O)COc3ccc(Cl)cc3)CC2)c2nc(-c3ccc(C(F)(F)F)cc3)ccc2n1` [Example 379, 2-amino-4-[N-(4-chlorophenoxyacetyl)piperazin-1-yl]-6-(4-trifluoromethylphenyl)-pyrido-[3,2-d]pyrimidine], the CC50/EC50 in series [1] came out at 287. In addition, the 50% effective concentration (EC50) in series [1] (setting [3]) amounted to 0.075 µM. The same compound gave a half-maximal cytotoxic concentration (CC50) in series [2] of 21.6 µM.

For `Nc1nc(N2CCN(C(=O)COc3ccc(Cl)cc3)CC2)c2nc(-c3ccncc3)ccc2n1` [Example 386, 2-amino-4-[N-(4-chlorophenoxyacetyl)piperazin-1-yl]-6-(pyridin-4-yl)pyrido-[3,2-d]pyrimidine], the CC50/EC50 in series [1] stood at 4585. Moreover, in series [1] (setting [3]), the EC50 came to 0.001 µM. Moreover, in series [2], the CC50 turned out to be 6 µM.

Consider `COc1ccc(-c2ccc3nc(C)nc(N4CCN(C(=O)Nc5cccc(C)c5)CC4)c3n2)cc1OC` [Example 11], for which the CC50/EC50 in series [1] worked out at 98. For the same compound, the 50% effective concentration (EC50) in series [1] (setting [3]) amounted to 0.075 µM. This compound also showed a CC50 in series [2] of 7.3 µM.

For the compound `Nc1nc(N2CCN(C(=O)COc3ccc(Cl)cc3)CC2)c2nc(-c3ccc(F)c(Cl)c3)ccc2n1` [Example 387, 2-amino-4-[N-(4-chlorophenoxyacetyl)piperazin-1-yl]-6-(3-chloro-4-fluorophenyl)-pyrido-[3,2-d]pyrimidine], in series [1], the CC50/EC50 is 280. For the same compound, in series [1] (setting [3]), the EC50 was 0.021 µM. Further, the CC50 in series [2] came to 5.9 µM.

Consider “2-amino-4-[(N-3-chloro-phenyl-carbamoyl)-piperazin-1-yl]-6-(3-methyl-4-methoxy-phenyl)pyrido-[3,2-d]pyrimidine [Example 168]”, for which, in series [1], the CC50/EC50 turned out to be 97. In addition, the EC50 in series [1] (setting [3]) came to 0.027 µM. The compound further yielded a 50% cytotoxic concentration (CC50) in series [2] of 2.6 µM.

With `CCOc1nc(NC(C)=O)nc2ccc(-c3ccc(F)cc3)nc12` [NHCOMe/OEt/(4-F)Ph], in series [1], the CC50/EC50 stood at 170. Besides, in series [1] (setting [3]), the 50% effective concentration (EC50) was found to be 0.148 µM. Besides, the CC50 in series [2] came to 25.1 µM.
